Patent publication USRE48842E1, “Pyrimido-pyrrolo-oxazine-dione compound inhibitors of the cystic fibrosis transmembrane conductance regulator protein and uses therefor” (The Regents of the University of California, priority 2011, dated 2021)

Assays:
human wildtype CFTR [1] = molecular target: T1, human wildtype CFTR (Homo sapiens, UniProt P13569); assay: Short-circuit current analysis of CFTR inhibition in CFTR-expressing FRT cells; format: cell-based; set-up: expressed in transfected cells; host or cells: Fischer rat thyroid (FRT) epithelial cells on Snapwell inserts; conditions: Determined by short-circuit current assay; read-out: IC50 (μM)^B
Procedure: Short-Circuit Current—Snapwell inserts containing CFTR-expressing FRT cells were mounted in an Ussing chamber. The hemichambers contained 5 mL of buffer containing 75 mM NaCl and 75 mM Na gluconate (apical) and 150 mM NaCl (basolateral) (pH 7.3), and the basolateral membrane was permeabilized with 250 μg/mL amphotericin B, as described (see, e.g., Sonawane et al., FASEB J 2006, supra). Short-circuit current was recorded continuously using a DVC-1000 voltage clamp (World Precision Instruments) using Ag/AgCl electrodes and 3 M KCl agar bridges.
Current was measured in CFTR-expressing FRT cells in which the basolateral membrane was permeabilized and in the presence of a transepithelial chloride concentration gradient, so that current is a quantitative linear measure of CFTR function. CFTR was activated by forskolin, followed by serial additions of increasing concentrations of test compounds.
CFTR inhibition potency was measured by short-circuit current analysis in FRT epithelial cells expressing human CFTR in presence of a transepithelial chloride gradient and in which the basolateral membrane was permeabilized with amphotericin B. Under these conditions short-circuit current is proportional to CFTR chloride conductance.

human wildtype CFTR [2] = molecular target: T1, human wildtype CFTR; assay: Fluorescence plate reader assay of CFTR inhibition (iodide influx); format: cell-based; set-up: expressed in transfected cells; host or cells: Fischer rat thyroid (FRT) cells; conditions: for IC50 / IC50 (μm)^A: Determined by micro-plate reader assay, FRT cells co-expressing human wild type CFTR and YFP-H148Q
Procedure: Cell Culture and Plate Reader Assay of CFTR Inhibition—Fischer rat thyroid (FRT) cells co-expressing human wild type CFTR and the halide indicator YFP-H148Q were cultured in 96-well black-walled microplates (Corning Costar) at a density of 20,000 cells per well in Coon's modified F12 medium containing 10% fetal bovine serum, 2 mM L-glutamine, 100 U/mL penicillin and 100 μg/mL streptomycin. CFTR chloride conductance was assayed at 48 h after plating on a FluoStar fluorescence plate reader (BMG Lab Technologies) as described (see, e.g., Ma et al., J Clin Invest. 2002, supra). Each well was washed 3 times with PBS, leaving 60 μL PBS. Test compounds were added and incubated with the cells for 45 min. Then, 5 μL of a CFTR-activating cocktail (10 μM forskolin, 100 μM IBMX, 20 μM apigenin in PBS) was added. After 15 min, each well was assayed for iodide influx by recording fluorescence continuously (200 ms per point) for 2 s (baseline) and then for 10 s after rapid addition of 160 μL of isosmolar PBS in which 137 mM chloride was replaced by iodide. The initial rate of iodide influx was computed from fluorescence data by non-linear regression.
Initial testing of the compounds for the capability to inhibit CFTR was performed using a plate-reader assay in which iodide influx was measured in FRT cells co-expressing human wild type CFTR and the iodide-sensing yellow fluorescent protein YFP-H148Q/1152L. […] Table B below provides IC50 values for PPQ and BPO compounds.
The relative IC50 values obtained from the plate reader assay are useful for comparisons. Absolute IC50 values obtained from the plate-reader assay are approximate, generally underestimating compound potency because of assay non-linearities, pH-dependent YFP fluorescence, the use of iodide instead of chloride, and compound dilution at the start of the assay (see, e.g., Galietta et al., Am. J. Physiol. Cell Physiol. 281:C1734-42 (2001)).

T1 sequence (P13569 whole entry): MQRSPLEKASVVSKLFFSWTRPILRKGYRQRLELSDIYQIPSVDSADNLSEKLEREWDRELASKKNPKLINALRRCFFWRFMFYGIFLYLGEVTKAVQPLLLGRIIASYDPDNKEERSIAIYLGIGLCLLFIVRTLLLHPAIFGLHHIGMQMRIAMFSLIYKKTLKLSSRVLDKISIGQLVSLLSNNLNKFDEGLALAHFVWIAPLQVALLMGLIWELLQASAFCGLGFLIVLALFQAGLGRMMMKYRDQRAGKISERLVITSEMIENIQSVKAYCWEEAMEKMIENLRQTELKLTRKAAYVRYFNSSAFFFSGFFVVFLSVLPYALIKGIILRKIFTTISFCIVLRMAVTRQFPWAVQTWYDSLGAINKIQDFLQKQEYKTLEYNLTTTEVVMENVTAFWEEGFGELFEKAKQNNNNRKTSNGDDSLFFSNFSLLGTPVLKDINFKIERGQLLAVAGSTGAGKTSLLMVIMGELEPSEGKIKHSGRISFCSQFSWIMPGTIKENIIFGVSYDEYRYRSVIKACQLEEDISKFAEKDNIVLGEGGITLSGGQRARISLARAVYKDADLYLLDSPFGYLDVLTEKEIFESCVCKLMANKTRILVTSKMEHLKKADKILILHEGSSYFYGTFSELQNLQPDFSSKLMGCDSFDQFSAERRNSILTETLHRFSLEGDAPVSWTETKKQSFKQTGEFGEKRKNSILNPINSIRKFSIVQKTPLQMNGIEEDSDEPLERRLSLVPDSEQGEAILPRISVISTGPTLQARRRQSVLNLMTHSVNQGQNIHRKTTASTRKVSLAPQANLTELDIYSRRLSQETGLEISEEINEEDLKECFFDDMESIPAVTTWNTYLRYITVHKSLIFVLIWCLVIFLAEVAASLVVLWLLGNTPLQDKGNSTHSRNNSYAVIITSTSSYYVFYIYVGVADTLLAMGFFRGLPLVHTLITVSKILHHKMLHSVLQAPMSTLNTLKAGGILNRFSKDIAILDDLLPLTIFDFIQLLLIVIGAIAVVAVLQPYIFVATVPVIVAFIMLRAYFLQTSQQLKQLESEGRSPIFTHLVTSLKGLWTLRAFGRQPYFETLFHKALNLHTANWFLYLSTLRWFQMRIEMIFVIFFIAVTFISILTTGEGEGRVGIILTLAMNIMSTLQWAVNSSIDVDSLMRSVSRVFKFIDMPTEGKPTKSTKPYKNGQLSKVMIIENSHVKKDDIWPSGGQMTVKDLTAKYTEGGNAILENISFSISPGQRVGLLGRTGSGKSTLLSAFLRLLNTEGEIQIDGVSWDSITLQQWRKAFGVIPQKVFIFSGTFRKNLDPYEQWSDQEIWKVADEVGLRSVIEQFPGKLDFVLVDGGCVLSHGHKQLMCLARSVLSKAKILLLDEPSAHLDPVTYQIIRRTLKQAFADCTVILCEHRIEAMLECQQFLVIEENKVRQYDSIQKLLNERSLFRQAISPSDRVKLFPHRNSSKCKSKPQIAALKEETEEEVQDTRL

| Structure (SMILES) | IC50 (human wildtype CFTR [2]) [nM] | also measured |
| --- | --- | --- |
| CCOC(=O)c1ccc2c(c1)-n1c(-c3ccccc3)c3c(=O)n(C)c(=O)n(C)c3c1C(c1ccc(Br)o1)O2 (racemic) [BPO-25, Ethyl 6-(5-Bromofuran-2-yl)-7,9-dimethyl-8,10-dioxo-11-phenyl-7,8,9,10-tetrahydro-6H-benzo[b]pyrimido[4′,5′:3,4]pyrrolo[1,2-d][1,4]oxazine-2-carboxylate] | 50 | IC50 (human wildtype CFTR [1]): 0.025 µM; CFTR inhibition activity (in words) (human wildtype CFTR [2]): excellent CFTR inhibition activity |
| Cn1c(=O)c2c(-c3ccccc3)n3c(c2n(C)c1=O)C(c1ccc(I)o1)Oc1ccccc1-3 (centres unmarked) [BPO-17, 7,9-Dimethyl-6-(5-iodofuran-2-yl)-11-phenyl-6Hbenzo[b]pyrimido[4′,5′-3,4]pyrrolo[1,2-d]oxazine-8,10-(7H,9H)-dione] | 500 |  |
| Cc1ccc(C2Oc3ccccc3-n3c(-c4ccccc4)c4c(=O)n(C)c(=O)n(C)c4c32)o1 (centres unmarked) [BPO-18, 7,9-Dimethyl-6-(5-methylfuran-2-yl)-11-phenyl-6H-benzo[b]pyrimido[4′,5′-3,4]pyrrolo[1,2-d]oxazine-8,10-(7H,9H)-dione] | 150 |  |
| Cc1cccc(-c2c3c(=O)n(C)c(=O)n(C)c3c3n2-c2ccccc2OC3c2ccc(Cl)o2)c1 (centres unmarked) [BPO-19, 6-(5-Chlorofuran-2-yl)-7,9-dimethyl-11-(m-tolyl)-6Hbenzo[b]pyrimido[4′,5′-3,4]pyrrolo[1,2-d]oxazine-8,10-(7H,9H)-dione] | 370 |  |
| Cc1cccc(-c2c3c(=O)n(C)c(=O)n(C)c3c3n2-c2ccccc2OC3c2ccc(C)o2)c1 (centres unmarked) [BPO-20, 7,9-Dimethyl-6-(5-methylfuran-2-yl)-11-(m-tolyl)-6H-benzo[b]pyrimido[4′,5′-3,4]pyrrolo[1,2-d]oxazine-8,10-(7H,9H)-dione] | 600 |  |
| Cc1ccc(C2Oc3ccc([N+](=O)[O-])cc3-n3c(-c4ccccc4)c4c(=O)n(C)c(=O)n(C)c4c32)o1 (centres unmarked) [BPO-22, 7,9-Dimethyl-6-(5-methylfuran-2-yl)-2-nitro-11-phenyl-6H-benzo[b]pyrimido[4′,5′-3,4]pyrrolo[1,2-d]oxazine-8,10-(7H,9H)-dione] | 100 | IC50 (human wildtype CFTR [1]): 0.025 µM |
| Cc1ccc(C2Oc3cc([N+](=O)[O-])c(Cl)cc3-n3c(-c4ccccc4)c4c(=O)n(C)c(=O)n(C)c4c32)o1 (centres unmarked) [BPO-24, 2-Chloro-7,9-Dimethyl-6-(5-methylfuran-2-yl)-3-nitro-11-phenyl-6H-benzo[b]pyrimido[4′,5′-3,4]pyrrolo[1,2-d]oxazine-8,10-(7H,9H)-dione] | 170 |  |
| CCOC(=O)c1ccc2c(c1)-n1c(-c3ccccc3)c3c(=O)n(C)c(=O)n(C)c3c1C(c1ccc(C)o1)O2 (centres unmarked) [BPO-26, Ethyl 7,9-Dimethyl-8,10-dioxo-6-(5-methylfuran-2-yl)-11-phenyl-7,8,9,10-tetrahydro-6H-benzo[b]pyrimido[4′,5′:3,4]pyrrolo[1,2-d][1,4]oxazine-2-carboxylate] | 80 |  |
| Cc1ccc(C2c3c4c(c(-c5ccccc5)n3-c3ccccc3N2S(C)(=O)=O)c(=O)n(C)c(=O)n4C)o1 (centres unmarked) [PPQ-1, 7,9-Dimethyl-6-(5-methylfuran-2-yl)-5-(methylsulfonyl)-11-phenyl-5,6-dihydropyrimido[4′,5′-3,4]pyrrolo[1,2-a]quinoxaline-8,10-(7H,9H)-dione] |  | IC50 (μm)^A (human wildtype CFTR [2]): inactive |
| Cc1ccc(C2c3c4c(c(-c5ccccc5)n3-c3ccccc3N2C(=O)CCl)c(=O)n(C)c(=O)n4C)o1 (centres unmarked) [PPQ-2, 5-(2-Chloroacetyl)-7,9-dimethyl-6-(5-methylfuran-2-yl)-11-phenyl-5,6-dihydropyrimido[4′,5′-3,4]pyrrolo[1,2-a]quinoxaline-8,10-(7H,9H)-dione] |  | IC50 (μm)^A (human wildtype CFTR [2]): inactive |
| CC(=O)N1c2ccccc2-n2c(-c3ccccc3)c3c(=O)n(C)c(=O)n(C)c3c2C1c1ccc(C)o1 (centres unmarked) [PPQ-3, 5-Acetyl-7,9-dimethyl-6-(5-methylfuran-2-yl)-11-phenyl-5,6. -dihydropyrimido[4′,5′-3,4]pyrrolo[1,2-a]quinoxaline-8,10-(7H,9H)-dione] |  | IC50 (μm)^A (human wildtype CFTR [2]): inactive |
| Cc1ccc(C2c3c4c(c(-c5ccccc5)n3-c3ccccc3N2N=O)c(=O)n(C)c(=O)n4C)o1 (centres unmarked) [PPQ-4, 7,9-Dimethyl-6-(5-methylfuran-2-yl)-5-nitroso-11-phenyl-5,6. -dihydropyrimido[4′,5′-3,4]pyrrolo[1,2-a]quinoxaline-8,10-(7H,9H)-dione] | 2000 |  |
| Cc1ccc(C2c3c4c(c(-c5ccccc5)n3-c3ccccc3N2C)c(=O)n(C)c(=O)n4C)o1 (centres unmarked) [PPQ-5, 5,7,9-Trimethyl-6-(5-methylfuran-2-yl)-11-phenyl-5,6-dihydropyrimido[4′,5′-3,4]pyrrolo[1,2-a]quinoxaline-8,10-(7H,9H)-dione] | 1000 | CFTR inhibition activity (in words) (human wildtype CFTR [2]): weakly active |
| CCc1ccc(C2Nc3ccccc3-n3c(-c4ccccc4)c4c(=O)n(C)c(=O)n(C)c4c32)o1 (centres unmarked) [PPQ-6, 7,9-Dimethyl-6-(5-ethylfuran-2-yl)-11-phenyl-5,6-dihydropyrimido[4′,5′-3,4]pyrrolo[1,2-a]quinoxaline-8,10-(7H,9H)-dione] | 300 |  |
| Cc1ccc(C2Nc3ccccc3-n3c(-c4ccccc4)c4c(=O)n(C)c(=O)n(C)c4c32)s1 (centres unmarked) [PPQ-7, 7,9-Dimethyl-6-(5-methylthiophene-2-yl)-11-phenyl-5,6-dihydropyrimido[4′,5′-3,4]pyrrolo[1,2-a]quinoxaline-8,10-(7H,9H)-dione] | 1700 |  |
| Cc1cc(C2Nc3ccccc3-n3c(-c4ccccc4)c4c(=O)n(C)c(=O)n(C)c4c32)oc1C (centres unmarked) [PPQ-8, 7,9-Dimethyl-6-(4,5-dimethylfuran-2-yl)-11-phenyl-5,6-dihydropyrimido[4′,5′-3,4]pyrrolo[1,2-a]quinoxaline-8,10-(7H,9H)-dione] | 1700 |  |
| Cn1c(=O)c2c(-c3ccccc3)n3c(c2n(C)c1=O)C(c1ccc(Cl)o1)Nc1ccccc1-3 (centres unmarked) [PPQ-9, 6(5-Chlorofuran-2-yl)-7,9-dimethyl-11-phenyl-5,6-dihydropyrimido[4′,5′-3,4]pyrrolo[1,2-a]quinoxaline-8,10-(7H,9H)-dione] | 150 |  |
| Cn1c(=O)c2c(-c3ccccc3)n3c(c2n(C)c1=O)C(c1ccc(C(F)(F)F)o1)Nc1ccccc1-3 (centres unmarked) [PPQ-12, 7,9-Dimethyl-11-phenyl-6-(5-trifluoromethylfuran-2-yl)-5,6-dihydropyrimido[4′,5′-3,4]pyrrolo[1,2-a]quinoxaline-8,10-(7H,9H)-dione] | 350 |  |
| Cn1c(=O)c2c(-c3ccccc3)n3c(c2n(C)c1=O)C(c1ccc(-c2ccccc2)o1)Nc1ccccc1-3 (centres unmarked) [PPQ-13, 7,9-Dimethyl-11-phenyl-6-(5-phenylfuran-2-yl)-5,6-dihydropyrimido[4′,5′-3,4]pyrrolo[1,2-a]quinoxaline-8,10-(7H,9H)-dione] |  | IC50 (μm)^A (human wildtype CFTR [2]): inactive |
| Cn1c(=O)c2c(-c3ccccc3)n3c(c2n(C)c1=O)C(c1ccc(CO)o1)Nc1ccccc1-3 (centres unmarked) [PPQ-14, 7,9-Dimethyl-11-phenyl-6-(5-hydroxymethylfuran-2-yl)-5,6-dihydropyrimido[4′,5′-3,4]pyrrolo[1,2-a]quinoxaline-8,10-(7H,9H)-dione] |  | IC50 (μm)^A (human wildtype CFTR [2]): inactive |
| Cn1c(=O)c2c(-c3ccccc3)n3c(c2n(C)c1=O)C(c1cc2ccccc2o1)Nc1ccccc1-3 (centres unmarked) [PPQ-15, 6-(Benzofuran-2-yl)-7,9-dimethyl-11-phenyl-5,6-dihydropyrimido[4′,5′-3,4]pyrrolo[1,2-a]quinoxaline-8,10-(7H,9H)-dione] |  | IC50 (μm)^A (human wildtype CFTR [2]): inactive |
| Cn1c(=O)c2c(-c3ccccc3)n3c(c2n(C)c1=O)C(c1ccc(Br)o1)Nc1ccc([N+](=O)[O-])cc1-3 (centres unmarked) [PPQ-23, 6-(5-Bromofuran-2-yl)-7,9-dimethyl-2-nitro-11-phenyl-5,6-dihydropyrimido[4′,5′-3,4]pyrrolo[1,2-a]quinoxaline-8,10-(7H,9H)-dione] | 170 |  |
